Test results: publication PMC3946636 (Cancer chemotherapy and pharmacology, 2013)

Assays:
relapsed myeloma = experiment: Clinical response by International Myeloma Working Group criteria; format: in vivo, human; details: 15 patients, all dose levels
[1] = Plasma pharmacokinetics, LC-MS/MS, non-compartmental analysis; format: in vivo, human; details: for AUC(0-inf) / clearance / Cmax / half-life / Tmax / Vd: human, plasma, intravenous; for AUC(0-inf): Mean AUC0-∞ ± SD; for clearance: Mean CL ± SD; for Cmax: Mean Cmax ± SD; for half-life: Mean T1/2 ± SD; for Vd: Mean Vz ± SD
[2] = in human serum; cited from earlier work
[3] = in vivo
[4] = dose level 30 + 30 mg/m^2, cycle 1 days 1 and 22 combined
[5] = dose level 30+50 mg/m^2, cycle 1 days 1 and 22 combined
[6] = dose level 50+50 mg/m^2, cycle 1 days 1 and 22 combined

With CN1CC[C@H](c2c(O)cc(O)c3c(=O)cc(-c4ccccc4Cl)oc23)[C@H](O)C1 [Flavopiridol] the Confirmed partial responses (relapsed myeloma) was “no confirmed partial responses”, the “Patients with progressive disease after the first cycle” value (relapsed myeloma) was 4 patients and the AUC(0-inf) [1, 4] was 7.78 ± 2.75 µM·h. It also gave an AUC(0-inf) [1, 5] of 4.75 ± 1.06 µM·h, an AUC(0-inf) [1, 6] of 14.2 ± 5.34 µM·h and a clearance [1, 4] of 666 mL/min. The clearance [1, 5] was 1280 mL/min, the clearance [1, 6] was 643 mL/min and the Cmax [1, 4] was 1850 ± 800 nM. For the same molecule, the Cmax [1, 5] was 1090 ± 430 nM, the Cmax [1, 6] was 2410 ± 740 nM and the half-life [1, 4] was 6.87 ± 3.24 h. The half-life [1, 5] was 3.65 ± 1.75 h, the half-life [1, 6] was 5.35 ± 2.83 h and the Tmax ([1]; Mean Tmax ± SD, dose level 30 + 30 mg/m^2, cycle 1 days 1 and 22 combined) was 0.52 ± 0.03 h. It also gave a Tmax ([1]; Mean Tmax ± SD, dose level 30+50 mg/m^2, cycle 1 days 1 and 22 combined) of 1.18 ± 1.22 h, a Tmax ([1]; Mean Tmax ± SD, dose level 50+50 mg/m^2, cycle 1 days 1 and 22 combined) of 1.4 ± 1.67 h and a Vd [1, 4] of 368 ± 210 L. For the same molecule, the Vd [1, 5] was 417 ± 242 L, the Vd [1, 6] was 317 ± 255 L and the Tmax ([1]; Tmax, outlier, 30/50 mg/m^2 dose level group, single profile) was 3 h. The “Average difference in AUC(0-∞), day 22 versus day 1” value ([1]; patients with PK data on both days (n=6), 95% CI −2.78 to 4.78, P=0.53) was 1.00 µM·h, the Protein binding [2] was “highly protein bound” and the “Dehydration, patients with toxicity” value ([3]; human) was 2 n. The “Diaphoresis, patients with toxicity” value ([3]; human) was 1 n, the “Dizziness, patients with toxicity” value ([3]; human) was 1 n and the “Hyperglycemia, patients with toxicity” value ([3]; human) was 4 n. For the same molecule, the “Hyperkalemia, patients with toxicity” value ([3]; human) was 2 n, the “Hypocalcemia, patients with toxicity” value ([3]; human) was 3 n and the “Lymphopenia, patients with toxicity” value ([3]; human) was 5 n. The “Nausea, patients with toxicity” value ([3]; human) was 3 n, the “Vomiting, patients with toxicity” value ([3]; human) was 1 n and the “Serious adverse events, number” value [3] was “eight”.
